± gives the standard deviation of the averaged measurements.
How the values were obtained:
[1] = compound: COc1ccc(-c2cc3c(C)nc(N)nc3n([C@H]3CC[C@H](OCCO)CC3)c2=O)cn1; assay: surviving fraction relative to DMSO-only wells; higher = less growth inhibition; conditions: exposure time: 5 days
Summary of the method: (§1)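 In 384-well plates, 250–500 log-phase tumour cells per well were given 24 hours before five days of continuous exposure to inhibitors at 0.5, 1, 5, 10, 50, 100, 500 and 1000 nM. Surviving fraction is luminescence from CellTiter-Glo, normalised to the median of wells containing DMSO alone. Reading took place after 10 minutes at room temperature.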

LENVATINIB = compound: COc1cc2nccc(Oc3ccc(NC(=O)NC4CC4)c(Cl)c3)c2cc1C(N)=O [LENVATINIB]; assay: as above; conditions: exposure time: 5 days
Summary of the method: as §1

| Test System | surviving fraction ([1]; 0.5 nM) | surviving fraction ([1]; 1 nM) | surviving fraction ([1]; 5 nM) | surviving fraction ([1]; 10 nM) | surviving fraction ([1]; 50 nM) | surviving fraction ([1]; 100 nM) | surviving fraction ([1]; 500 nM) | surviving fraction ([1]; 1000 nM) | surviving fraction (LENVATINIB; 0.5 nM) | surviving fraction (LENVATINIB; 1 nM) | surviving fraction (LENVATINIB; 5 nM) | surviving fraction (LENVATINIB; 10 nM) | surviving fraction (LENVATINIB; 50 nM) | surviving fraction (LENVATINIB; 100 nM) | surviving fraction (LENVATINIB; 500 nM) | surviving fraction (LENVATINIB; 1000 nM) |
| --- | --- | --- | --- | --- | --- | --- | --- | --- | --- | --- | --- | --- | --- | --- | --- | --- |
| MDAMB453 BREAST | 1.08 ± 0.075 | 1.03 ± 0.078 | 1.05 ± 0.054 | 1.06 ± 0.069 | 0.603 ± 0.051 | 0.312 ± 0.047 | 0.0933 ± 0.0086 | 0.0587 ± 0.016 | 1.11 ± 0.035 | 1.11 ± 0.068 | 1.12 ± 0.019 | 1.13 ± 0.043 | 1.12 ± 0.037 | 1.15 ± 0.049 | 0.663 ± 0.016 | 0.52 ± 0.035 |
| MDAMB436 BREAST | 0.881 ± 0.036 | 0.856 ± 0.055 | 0.8 ± 0.031 | 0.75 ± 0.051 | 0.582 ± 0.027 | 0.432 ± 0.023 | 0.265 ± 0.016 | 0.2398 ± 0.0015 | 0.949 ± 0.032 | 1.01 ± 0.11 | 0.946 ± 0.04 | 0.976 ± 0.039 | 1.01 ± 0.11 | 0.907 ± 0.015 | 1.04 ± 0.077 | 0.932 ± 0.033 |
| SIHA CERVIX | 1.01 ± 0.032 | 1.02 ± 0.07 | 0.974 ± 0.062 | 0.93 ± 0.063 | 0.656 ± 0.025 | 0.536 ± 0.024 | 0.232 ± 0.0035 | 0.161 ± 0.011 | 1.07 ± 0.016 | 1.1 ± 0.04 | 1.12 ± 0.049 | 1.11 ± 0.085 | 1.2 ± 0.14 | 1.18 ± 0.05 | 1.04 ± 0.13 | 0.97 ± 0.035 |
| 143B BONE | 0.995 ± 0.0057 | 0.992 ± 0.014 | 1.01 ± 0.039 | 0.966 ± 0.025 | 0.946 ± 0.011 | 0.896 ± 0.02 | 0.391 ± 0.016 | 0.267 ± 0.013 | 0.992 ± 0.0085 | 1.018 ± 0.0064 | 1.04 ± 0.022 | 1.01 ± 0.027 | 1.04 ± 0.012 | 1.05 ± 0.015 | 1.05 ± 0.022 | 1.05 ± 0.013 |
| U2OS BONE | 0.98 ± 0.036 | 1.02 ± 0.019 | 0.9927 ± 0.0096 | 0.92 ± 0.05 | 0.794 ± 0.044 | 0.693 ± 0.029 | 0.277 ± 0.0042 | 0.202 ± 0.0051 | 1.01 ± 0.038 | 0.99 ± 0.045 | 1.04 ± 0.039 | 1.02 ± 0.027 | 1.02 ± 0.019 | 1.02 ± 0.033 | 0.891 ± 0.051 | 0.832 ± 0.027 |
| COLO320DM LARGE INTESTINE | 1.07 ± 0.051 | 1.08 ± 0.08 | 0.994 ± 0.05 | 0.906 ± 0.029 | 0.5533 ± 0.0034 | 0.383 ± 0.037 | 0.215 ± 0.0076 | 0.18 ± 0.0044 | 1.16 ± 0.058 | 1.1 ± 0.077 | 1.05 ± 0.053 | 1.1 ± 0.18 | 1.17 ± 0.033 | 1.1 ± 0.072 | 1.14 ± 0.067 | 1.11 ± 0.068 |
| VCAP PROSTATE | 1.01 ± 0.05 | 1.08 ± 0.04 | 1.06 ± 0.14 | 0.983 ± 0.056 | 0.706 ± 0.027 | 0.52 ± 0.023 | 0.161 ± 0.013 | 0.0997 ± 0.016 | 1.03 ± 0.038 | 1.04 ± 0.12 | 1.17 ± 0.15 | 1.12 ± 0.1 | 1.1 ± 0.11 | 1.17 ± 0.079 | 0.962 ± 0.097 | 0.97 ± 0.078 |
| YAMATO SYNOVIAL | 1.15 ± 0.087 | 1.09 ± 0.066 | 1.01 ± 0.073 | 0.952 ± 0.057 | 0.469 ± 0.062 | 0.355 ± 0.0076 | 0.189 ± 0.014 | 0.272 ± 0.012 | 1.18 ± 0.073 | 1.15 ± 0.05 | 1.13 ± 0.12 | 1.06 ± 0.072 | 1.1 ± 0.062 | 1.14 ± 0.13 | 0.953 ± 0.08 | 0.949 ± 0.017 |
| HCC202 BREAST | 1.18 ± 0.25 | 1.37 ± 0.17 | 0.947 ± 0.27 | 0.94 ± 0.21 | 0.635 ± 0.18 | 0.295 ± 0.047 | 0.0793 ± 0.018 | 0.048 ± 0.013 | 1.04 ± 0.13 | 0.977 ± 0.21 | 1.1 ± 0.33 | 1.32 ± 0.17 | 0.801 ± 0.56 | 1.15 ± 0.18 | 0.783 ± 0.6 | 0.946 ± 0.25 |
| SCC003 HEADNECK | 1.03 ± 0.13 | 1.04 ± 0.057 | 1.02 ± 0.18 | 1.02 ± 0.036 | 0.879 ± 0.098 | 0.878 ± 0.13 | 0.23 ± 0.034 | 0.206 ± 0.049 | 1.18 ± 0.074 | 1.1 ± 0.13 | 1.16 ± 0.12 | 1.1 ± 0.032 | 1.13 ± 0.1 | 1.18 ± 0.064 | 1.13 ± 0.051 | 1.1 ± 0.098 |
| KPD BONE | 0.973 ± 0.033 | 0.95 ± 0.056 | 0.908 ± 0.032 | 0.852 ± 0.032 | 0.486 ± 0.028 | 0.313 ± 0.019 | 0.0613 ± 0.0067 | 0.038 ± 0.0046 | 1 ± 0.019 | 0.99 ± 0.067 | 1.01 ± 0.078 | 1.01 ± 0.093 | 1 ± 0.11 | 1.02 ± 0.11 | 0.948 ± 0.03 | 0.814 ± 0.037 |
| HELA CERVIX | 0.998 ± 0.04 | 0.989 ± 0.088 | 1.02 ± 0.042 | 1.02 ± 0.035 | 1.11 ± 0.039 | 1.06 ± 0.052 | 0.4 ± 0.019 | 0.318 ± 0.017 | 1.06 ± 0.088 | 1.04 ± 0.095 | 1.05 ± 0.061 | 1.05 ± 0.071 | 1.17 ± 0.04 | 1.19 ± 0.1 | 1.19 ± 0.1 | 1.17 ± 0.044 |
| C33A CERVIX | 0.778 ± 0.031 | 0.943 ± 0.09 | 0.789 ± 0.075 | 0.923 ± 0.073 | 0.614 ± 0.043 | 0.482 ± 0.012 | 0.156 ± 0.024 | 0.101 ± 0.018 | 0.874 ± 0.037 | 0.937 ± 0.094 | 1 ± 0.14 | 1 ± 0.11 | 1.06 ± 0.097 | 1.14 ± 0.056 | 1.02 ± 0.1 | 0.955 ± 0.088 |
| HU09 BONE | 0.936 ± 0.058 | 0.941 ± 0.057 | 0.779 ± 0.044 | 0.793 ± 0.078 | 0.346 ± 0.042 | 0.168 ± 0.015 | 0.0383 ± 0.0015 | 0.0237 ± 0.0015 | 0.925 ± 0.039 | 0.985 ± 0.079 | 0.97 ± 0.014 | 0.937 ± 0.13 | 0.649 ± 0.075 | 0.587 ± 0.021 | 0.33 ± 0.045 | 0.288 ± 0.034 |
| SCC47 HEADNECK | 0.983 ± 0.021 | 0.992 ± 0.084 | 0.992 ± 0.027 | 1.01 ± 0.015 | 0.903 ± 0.032 | 0.886 ± 0.019 | 0.371 ± 0.013 | 0.225 ± 0.0095 | 1.11 ± 0.068 | 1.02 ± 0.012 | 1.14 ± 0.021 | 1.14 ± 0.1 | 1.06 ± 0.024 | 1.11 ± 0.15 | 1.12 ± 0.081 | 1.08 ± 0.069 |
| SUM149.B1*.S BREAST | 0.985 ± 0.03 | 1.02 ± 0.059 | 1.02 ± 0.032 | 0.995 ± 0.037 | 0.924 ± 0.011 | 0.823 ± 0.03 | 0.475 ± 0.014 | 0.339 ± 0.017 | 1.11 ± 0.031 | 1.15 ± 0.018 | 1.15 ± 0.03 | 1.11 ± 0.044 | 1.19 ± 0.029 | 1.15 ± 0.031 | 1.17 ± 0.052 | 1.14 ± 0.042 |
| LM7 BONE | 0.996 ± 0.022 | 0.896 ± 0.031 | 0.947 ± 0.019 | 0.906 ± 0.057 | 0.691 ± 0.023 | 0.578 ± 0.022 | 0.205 ± 0.012 | 0.0677 ± 0.005 | 0.974 ± 0.11 | 0.951 ± 0.066 | 1.03 ± 0.074 | 0.973 ± 0.086 | 1.07 ± 0.12 | 1.03 ± 0.041 | 0.939 ± 0.022 | 0.952 ± 0.11 |
| OSHN BONE | 1.03 ± 0.024 | 1.03 ± 0.035 | 1.02 ± 0.029 | 1.01 ± 0.03 | 1.1 ± 0.0058 | 1.03 ± 0.034 | 0.447 ± 0.016 | 0.267 ± 0.0045 | 1.11 ± 0.034 | 1.11 ± 0.044 | 1.11 ± 0.033 | 1.11 ± 0.052 | 1.1 ± 0.02 | 1.1 ± 0.035 | 1.1 ± 0.027 | 1.07 ± 0.011 |
| SYO1 SYNOVIAL | 0.961 ± 0.013 | 0.912 ± 0.021 | 0.895 ± 0.061 | 0.825 ± 0.041 | 0.557 ± 0.0083 | 0.386 ± 0.035 | 0.118 ± 0.028 | 0.0698 ± 0.019 | 0.942 ± 0.11 | 0.962 ± 0.025 | 0.918 ± 0.017 | 0.889 ± 0.042 | 0.768 ± 0.079 | 0.667 ± 0.042 | 0.528 ± 0.031 | 0.504 ± 0.02 |
| OS25HAL BONE | 0.95 ± 0.012 | 0.9753 ± 0.0029 | 0.9657 ± 0.0091 | 0.86 ± 0.041 | 0.603 ± 0.042 | 0.35 ± 0.066 | 0.13 ± 0.0092 | 0.0623 ± 0.0049 | 1.03 ± 0.026 | 1.026 ± 0.0067 | 1.01 ± 0.016 | 1.01 ± 0.05 | 0.98 ± 0.027 | 0.938 ± 0.025 | 0.895 ± 0.016 | 0.88 ± 0.021 |

— the supplement of paper PMC6045584
